pKi: −log10 of the molar value.

In the experiment the target is T1, Orotidine 5'-phosphate decarboxylase (Saccharomyces cerevisiae S288c, UniProt P03962).
T1 sequence (P03962 whole entry): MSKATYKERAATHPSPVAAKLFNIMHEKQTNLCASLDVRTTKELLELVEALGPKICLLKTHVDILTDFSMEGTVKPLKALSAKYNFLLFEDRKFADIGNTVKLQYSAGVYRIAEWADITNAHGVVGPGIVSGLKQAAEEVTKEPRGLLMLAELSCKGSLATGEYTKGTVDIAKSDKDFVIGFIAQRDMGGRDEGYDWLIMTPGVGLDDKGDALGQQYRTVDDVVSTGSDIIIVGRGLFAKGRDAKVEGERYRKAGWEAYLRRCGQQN
Briefly: Inhibition of Saccharomyces cerevisiae ODCase at 25 degreeC by competitive binding assay.

As a reminder, the pKi is the Ki on a negative log10 scale, so that one unit is a factor of ten. A high value points to a low Ki. For `O=c1cnn([C@@H]2O[C@H](COP(=O)(O)O)[C@@H](O)[C@H]2O)c(=O)[nH]1` [6-AZA-URIDINE MONOPHOSPHATE], the pKi was 7.19.

These data come from ChEMBL document CHEMBL1145332, “Design of inhibitors of orotidine monophosphate decarboxylase using bioisosteric replacement and determination of inhibition kinetics” (J Med Chem, 2006).
